Test results: patent US5084479A, “Novel methods for treating neurodegenerative diseases” (priority 1990, dated 1992)
Values joined by “and” are separate entries in the source; they are usually repeats but may differ in a detail not shown here. Equal entries are not always repeated. Where two headings read alike, the source gives them in different places.

What was measured:
[1] = system: glycine modulatory site of the NMDA receptor-channel complex; format: cell-based, rat; conditions: for Effect on glycine-potentiated NMDA-induced current: gabapentin 10 μM with glycine 1 μM and strychnine 10 μM, reversed on washing; for Effect on glycine-potentiated NMDA-induced current / Effect on NMDA-induced current in the absence of glycine: acetic acid; for Effect on NMDA-induced current in the absence of glycine: gabapentin 10 μM, bath application, reversed on washing for four minutes
Experimental: Whole-cell patch clamp techniques were employed to investigate the effects of the antiepileptic drug, gabapentin, upon the responses of striatal neurons in dissociated culture to NMDA.
Striata were aseptically dissected from 16-day-old rat fetuses and mechanically triturated in enzyme-free Puck's saline (Gibco, UK). The resulting suspension was diluted to 1×10^6 cells/mL using freshly prepared medium. The medium was composed of Minimal essential medium with Earle's salts and included Fetal calf serum (5% v/v), Horse serum (5% v/v), L-Glutamine (2 mM), Insulin ([…]), and HEPES (5 mM) buffer (all Gibco, UK).
The cells were plated onto Poly-L-ornithine ([…]; Sigma) coated glass coverslips (diameter 13 mm) and incubated at 37° C. in a humidified atmosphere of 95% Air/5% CO2.
After seven days, the media was replaced with freshly prepared media containing (+)-5-fluoro-deoxyuridine (10 μM; Sigma) to inhibit the proliferation of nonneuronal elements. Cultures were subsequently fed twice weekly.
Patch electrodes with ohmic resistances of 6-10 M .OMEGA. were filled with an intracellular solution of the following composition (all mM); CsF 140.0, CaCl2 0.5, NaCl 1.0, K-EGTA 5.0 and HEPES 10.0. All recordings were made at 20°-22° C. using a List EPC7 amplifier and the resulting signal was filtered at 10 KHz. Fast and slow transient capacity compensation was employed, and cells were voltage clamped at a holding potential of -70 mV, unless otherwise stated.
Drugs were dissolved to a known concentration in the extracellular solution and were applied via the perfusion system. NMDA was applied via the perfusion system, or by rapid pressure ejection. All drugs were obtained from Sigma, except gabapentin which was synthesized at Goedecke (Warner-Lambert) Germany.

GABAB = conditions: cited from earlier work
[2] = system: NMDA receptor-channel complex; assay: Intracellular recording of NMDA-induced depolarization, CA1 hippocampal neurones in brain slices; format: cell-based, rat; conditions: gabapentin 300 μM
Experimental: (§1) Intracellular recordings were made from neurones of either paraventricular thalamus (n =8, 7 slices) or CA1 region of the hippocampus (n =5, 5 slices) contained in […] rat brain slices. NMDA applied via the perfusion system, produced a concentration-dependent depolarization of all neurones tested. In every case but one, control response to NMDA was reduced by a concomitant application of gabapentin (300 μM). The concentration-response curves for NMDA in the presence and absence of gabapentin show a noncompetitive interaction of gabapentin with NMDA receptor-channel complex.
(§2) Coronal slices of rat brain at the level of the ventromedial hypothalamus were chosen since these contain both hippocampus and paraventricular thalamus (PVT). Slices were perfused in normal (1.3 mM magnesium) artificial cerebrospinal fluid (ACSF) at 3 mL/min. Conventional intracellular recording techniques were employed, using 1M potassium acetate-filled electrodes pulled on a Brown-Flaming microelectrode puller type P-87.
Drugs were made up as stock solutions in distilled water (NMDA 50 mM; gabapentin 100 mM) and stored frozen prior to use. The required concentrations of each drug were obtained by direct dilution with ACSF at the time of the experiment. Control dose-response curves for NMDA were obtained either in the presence or absence of tetrodotoxin (TTX). […]

[3] = in vivo; cited from earlier work
neuronal GABA uptake = conditions: cited from earlier work
[4] = in vivo; cited from earlier work; remark: listed apart in the source
[5] = system: NMDA receptor-channel complex; assay: Intracellular recording of NMDA-induced depolarization, paraventricular thalamus (PVT) neurones in brain slices; format: cell-based, rat; conditions: gabapentin 300 μM
Experimental: as §1, §2
Drugs were made up as stock solutions in distilled water (NMDA 50 mM; gabapentin 100 mM) and stored frozen prior to use. The required concentrations of each drug were obtained by direct dilution with ACSF at the time of the experiment. Control dose-response curves for NMDA were obtained either in the presence or absence of tetrodotoxin (TTX). NMDA was applied to a 30-second period, with at least five minutes between successive doses. Gabapentin was added to the same NMDA-containing solutions and the dose-response curves repeated. Experiments were also performed using repeated single doses of NMDA to ensure that the effects of gabapentin were not due to rundown of the NMDA response.

GABA = conditions: cited from earlier work
[6] = system: seizures elicited by NMDA; conditions: in vivo; cited from earlier work
[7] = system: seizures elicited by 4-aminobutanoic acid (GABA) synthesis or GABA receptor antagonists; conditions: mice; cited from earlier work

## NCC(=O)O [Glycine, reference compound]
[1]
  Effect of glycine on NMDA-induced peak current: potentiation of the NMDA induced peak current
[1]; NMDA 100 μM bath application, glycine 1 μM
  Effect of glycine on sustained inward current produced by bath application of NMDA: markedly potentiated
[1]; striatal neurons
  Peak Inward Current (pA), relative to NMDA = 100%: 589 ± 156% and 713 ± 260%

## NCC1(CC(=O)O)CCCCC1 [gabapentin, 1-aminomethyl-cyclohexane acetic acid]
GABAB
  Displacement of GABAB binding: does not displace
[2]; CA1 hippocampal neurones, more evident as NMDA concentration increased
  Effect on NMDA-induced depolarization: reduction in the NMDA-induced depolarization
[2]; NMDA dose-response curves, hippocampus (FIG. 8B)
  Nature of the block of the NMDA response: noncompetitive
[3]
  Metabolism in the body: not metabolized in the body
Neuronal GABA uptake
  Interference with neuronal GABA uptake: does not interfere with neuronal GABA uptake
[4]
  Tolerability: well tolerated
  Toxicity: relatively nontoxic
[5]; 100 μM NMDA for 30 s, TTX present, thalamic neurones (FIG. 5)
  Reduction of NMDA depolarization: ~60%
[5]; NMDA dose-response curves, PVT neurones (FIG. 6B)
  Nature of the block of the NMDA response: noncompetitive
[5]; high (30 to 50 μM) concentrations of NMDA, PVT neurones
  Effect on response (depolarization) to NMDA: reduced
GABA
  Displacement of GABA binding: does not displace
[6]
  Latency of onset of seizures elicited by NMDA: prolong the latency of onset of seizures
[1]; Table 2, NMDA + 10 μM GABA-P, no exogenous glycine, n = 4
  Peak Inward Current (pA), relative to NMDA = 100%: 305 ± 88%
[1]; Table 2, NMDA after 'wash' of 10 μM GABA-P, n = 4
  Peak Inward Current (pA), relative to NMDA = 100%: 106 ± 9%
[1]; Table 3, 'wash' of GABA-P, NMDA + 1 μM Glycine + 10 μM Strychnine, n = 3
  Peak Inward Current (pA), relative to NMDA = 100%: 257 ± 418%
[1]; Table 3, NMDA + 1 μM Glycine + 10 μM Strychnine + 10 μM GABA-P, n = 3
  Peak Inward Current (pA), relative to NMDA = 100%: 201 ± 24%
[1]
  Effect on glycine-potentiated NMDA-induced current: antagonism of the glycine-induced potentiation of the NMDA-induced current
  Effect on NMDA-induced current in the absence of glycine: potentiation of the NMDA-induced current
[1]; listed as Gabapentin
  Effect on glycine-potentiated NMDA-induced current: antagonism of the glycine-potentiated NMDA current
  Effect on NMDA-induced current in the absence of glycine: reversible potentiation of the NMDA-induced current
[7]
  Protection from seizures: protect mice from seizures
